Drawing on ChEMBL document CHEMBL4507288 (2021), this text covers Ki and residual activity for two compounds.

In experiment [1] the target is 5-hydroxytryptamine receptor 2B (Homo sapiens, UniProt P41595). The experiment in a line: GPCRScan assay: inhibition of 5-HT2B. Also on record: radioligand conc. used [nm] 1.0 – 2.0, parental cells stable HEK.
Experiment [2] concerns Tyrosine-protein kinase ABL1 (Homo sapiens), P00519 [F317I]. The note with it: Compound concentration 1000.0 nM.
Experiment [3] has as its system ALK tyrosine kinase receptor (Homo sapiens), Q9UM73 [C1156Y]. The note with it: Compound concentration 1000.0 nM.
Experiment [4] concerns the target 5'-AMP-activated protein kinase catalytic subunit alpha-1 (Homo sapiens) (UniProt Q13131). The conditions noted are these: Compound concentration 1000.0 nM.
Experiment [5] concerns Serine/threonine-protein kinase B-raf (Homo sapiens), P15056 [V600E]. The conditions noted are these: Compound concentration 1000.0 nM.
For experiment [6], the target named is Calcium/calmodulin-dependent protein kinase type 1G (Homo sapiens) (UniProt Q96NX5). The note with it: Compound concentration 1000.0 nM.
Experiment [7] deals with Discoidin domain-containing receptor 2 (Homo sapiens) (UniProt Q16832). The note with it: Compound concentration 1000.0 nM.
Experiment [8] has as its target Mitogen-activated protein kinase kinase kinase 12 (Homo sapiens) (UniProt Q12852). The note with it: Compound concentration 1000.0 nM.
In experiment [9] the target is Ephrin type-A receptor 1 (Homo sapiens) (UniProt P21709). The note with it: Compound concentration 1000.0 nM.
Experiment [10] deals with Ephrin type-A receptor 5 (Homo sapiens) (UniProt P54756). The conditions noted are these: Compound concentration 1000.0 nM.
Experiment [11] addresses Ephrin type-A receptor 6 (Homo sapiens) (UniProt Q9UF33). The conditions noted are these: Compound concentration 1000.0 nM.
Experiment [12] addresses Ephrin type-B receptor 3 (Homo sapiens) (UniProt P54753). The note with it: Compound concentration 1000.0 nM.
The test system of experiment [13] is Receptor-type tyrosine-protein kinase FLT3 (Homo sapiens), P36888 [D835H]. The conditions noted are these: Compound concentration 1000.0 nM.
For experiment [14], the system named is Receptor-type tyrosine-protein kinase FLT3 (Homo sapiens), P36888 [R834Q]. The conditions noted are these: Compound concentration 1000.0 nM.
In experiment [15] the target is Receptor-type tyrosine-protein kinase FLT3 (Homo sapiens) (UniProt P36888). The conditions noted are these: Compound concentration 1000.0 nM.
The target of experiment [16] is Tyrosine-protein kinase FRK (Homo sapiens) (UniProt P42685). The note with it: Compound concentration 1000.0 nM.
Experiment [17] concerns the target Inhibitor of nuclear factor kappa-B kinase subunit beta (Homo sapiens) (UniProt O14920). The conditions noted are these: Compound concentration 1000.0 nM.
The target of experiment [18] is Tyrosine-protein kinase ITK/TSK (Homo sapiens) (UniProt Q08881). The note with it: Compound concentration 1000.0 nM.
The target in experiment [19] is Tyrosine-protein kinase JAK1 (Homo sapiens) (UniProt P23458). The note with it: Compound concentration 1000.0 nM.
The target in experiment [20] is Tyrosine-protein kinase JAK2 (Homo sapiens) (UniProt O60674). The conditions noted are these: Compound concentration 1000.0 nM.
In experiment [21] the target is Leucine-rich repeat serine/threonine-protein kinase 2 (Homo sapiens) (UniProt Q5S007). The note with it: Compound concentration 1000.0 nM.
Experiment [22] deals with Tyrosine-protein kinase Lyn (Homo sapiens) (UniProt P07948). The conditions noted are these: Compound concentration 1000.0 nM.
In experiment [23] the target is Serine/threonine-protein kinase MARK1 (Homo sapiens) (UniProt Q9P0L2). The conditions noted are these: Compound concentration 1000.0 nM.
Experiment [24] concerns the target Dual specificity mitogen-activated protein kinase kinase 3 (Homo sapiens) (UniProt P46734). The conditions noted are these: Compound concentration 1000.0 nM.
The target in experiment [25] is Serine/threonine-protein kinase 26 (Homo sapiens) (UniProt Q9P289). The note with it: Compound concentration 1000.0 nM.
In experiment [26] the target is Myosin light chain kinase family member 4 (Homo sapiens) (UniProt Q86YV6). The note with it: Compound concentration 1000.0 nM.
Experiment [27] deals with Serine/threonine-protein kinase Nek10 (Homo sapiens) (UniProt Q6ZWH5). The conditions noted are these: Compound concentration 1000.0 nM.
Experiment [28] addresses Cyclin-dependent kinase 2 homolog (Plasmodium falciparum (isolate 3D7)) (UniProt P61075). The note with it: Compound concentration 1000.0 nM.
In experiment [29] the target is Cyclin-dependent kinase 15 (Homo sapiens) (UniProt Q96Q40). The conditions noted are these: Compound concentration 1000.0 nM.
The target of experiment [30] is Phosphatidylinositol 4,5-bisphosphate 3-kinase catalytic subunit alpha isoform (Homo sapiens) (UniProt P42336). The note with it: Compound concentration 1000.0 nM.
Experiment [31] deals with 1-phosphatidylinositol 3-phosphate 5-kinase (Homo sapiens) (UniProt Q9Y2I7). The note with it: Compound concentration 1000.0 nM.
Experiment [32] deals with cAMP-dependent protein kinase catalytic subunit alpha (Homo sapiens) (UniProt P17612). The note with it: Compound concentration 1000.0 nM.
In experiment [33] the target is Serine/threonine-protein kinase PLK1 (Homo sapiens) (UniProt P53350). The note with it: Compound concentration 1000.0 nM.
Experiment [34] concerns the target Serine/threonine-protein kinase PLK4 (Homo sapiens) (UniProt O00444). The note with it: Compound concentration 1000.0 nM.
Experiment [35] deals with Proto-oncogene tyrosine-protein kinase receptor Ret (Homo sapiens), P07949 [V804M]. The note with it: Compound concentration 1000.0 nM.
Experiment [36] addresses Serine/threonine-protein kinase RIO2 (Homo sapiens) (UniProt Q9BVS4). The conditions noted are these: Compound concentration 1000.0 nM.
Experiment [37] deals with Receptor-interacting serine/threonine-protein kinase 4 (Homo sapiens) (UniProt P57078). The note with it: Compound concentration 1000.0 nM.
For experiment [38], the target named is Rho-associated protein kinase 1 (Homo sapiens) (UniProt Q13464). The note with it: Compound concentration 1000.0 nM.
Experiment [39] addresses Ribosomal protein S6 kinase alpha-6 (Homo sapiens) (UniProt Q9UK32). The conditions noted are these: Compound concentration 1000.0 nM.
Experiment [40] has as its target Serine/threonine-protein kinase SIK1 (Homo sapiens) (UniProt P57059). The note with it: Compound concentration 1000.0 nM.
Experiment [41] addresses TRAF2 and NCK-interacting protein kinase (Homo sapiens) (UniProt Q9UKE5). The note with it: Compound concentration 1000.0 nM.
Experiment [42] deals with Non-receptor tyrosine-protein kinase TNK1 (Homo sapiens) (UniProt Q13470). The note with it: Compound concentration 1000.0 nM.
In experiment [43] the target is Non-receptor tyrosine-protein kinase TYK2 (Homo sapiens) (UniProt P29597). The note with it: Compound concentration 1000.0 nM.
The target of experiment [44] is Serine/threonine-protein kinase WNK2 (Homo sapiens) (UniProt Q9Y3S1). The note with it: Compound concentration 1000.0 nM.
Experiment [45] addresses Mitogen-activated protein kinase kinase kinase 19 (Homo sapiens) (UniProt Q56UN5). The conditions noted are these: Compound concentration 1000.0 nM.

pKi: −log10 of the molar value.

Sequence of Serine/threonine-protein kinase SIK1 (Homo sapiens) (P57059 whole entry): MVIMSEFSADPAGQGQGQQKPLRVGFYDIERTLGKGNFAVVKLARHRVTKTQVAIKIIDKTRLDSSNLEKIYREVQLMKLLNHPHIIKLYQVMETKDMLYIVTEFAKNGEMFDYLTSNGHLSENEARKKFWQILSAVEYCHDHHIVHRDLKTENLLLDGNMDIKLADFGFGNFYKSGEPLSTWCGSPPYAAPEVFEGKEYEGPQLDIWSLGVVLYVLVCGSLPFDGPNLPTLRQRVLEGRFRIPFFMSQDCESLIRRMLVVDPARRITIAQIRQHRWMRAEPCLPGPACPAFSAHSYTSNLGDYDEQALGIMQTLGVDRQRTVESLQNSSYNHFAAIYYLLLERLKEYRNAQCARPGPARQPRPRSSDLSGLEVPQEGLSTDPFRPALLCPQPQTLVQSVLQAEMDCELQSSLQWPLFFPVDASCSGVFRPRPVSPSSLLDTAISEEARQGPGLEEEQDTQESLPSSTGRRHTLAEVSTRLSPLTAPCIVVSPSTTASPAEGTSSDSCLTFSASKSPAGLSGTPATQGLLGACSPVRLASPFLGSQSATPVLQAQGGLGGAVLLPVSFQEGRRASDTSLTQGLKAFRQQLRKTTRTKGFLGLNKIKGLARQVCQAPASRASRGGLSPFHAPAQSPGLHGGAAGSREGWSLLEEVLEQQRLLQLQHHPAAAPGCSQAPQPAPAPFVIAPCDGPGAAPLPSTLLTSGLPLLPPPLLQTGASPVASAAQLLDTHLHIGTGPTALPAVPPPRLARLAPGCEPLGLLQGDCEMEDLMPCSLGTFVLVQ
Sequence of Serine/threonine-protein kinase Nek10 (Homo sapiens) (Q6ZWH5 whole entry): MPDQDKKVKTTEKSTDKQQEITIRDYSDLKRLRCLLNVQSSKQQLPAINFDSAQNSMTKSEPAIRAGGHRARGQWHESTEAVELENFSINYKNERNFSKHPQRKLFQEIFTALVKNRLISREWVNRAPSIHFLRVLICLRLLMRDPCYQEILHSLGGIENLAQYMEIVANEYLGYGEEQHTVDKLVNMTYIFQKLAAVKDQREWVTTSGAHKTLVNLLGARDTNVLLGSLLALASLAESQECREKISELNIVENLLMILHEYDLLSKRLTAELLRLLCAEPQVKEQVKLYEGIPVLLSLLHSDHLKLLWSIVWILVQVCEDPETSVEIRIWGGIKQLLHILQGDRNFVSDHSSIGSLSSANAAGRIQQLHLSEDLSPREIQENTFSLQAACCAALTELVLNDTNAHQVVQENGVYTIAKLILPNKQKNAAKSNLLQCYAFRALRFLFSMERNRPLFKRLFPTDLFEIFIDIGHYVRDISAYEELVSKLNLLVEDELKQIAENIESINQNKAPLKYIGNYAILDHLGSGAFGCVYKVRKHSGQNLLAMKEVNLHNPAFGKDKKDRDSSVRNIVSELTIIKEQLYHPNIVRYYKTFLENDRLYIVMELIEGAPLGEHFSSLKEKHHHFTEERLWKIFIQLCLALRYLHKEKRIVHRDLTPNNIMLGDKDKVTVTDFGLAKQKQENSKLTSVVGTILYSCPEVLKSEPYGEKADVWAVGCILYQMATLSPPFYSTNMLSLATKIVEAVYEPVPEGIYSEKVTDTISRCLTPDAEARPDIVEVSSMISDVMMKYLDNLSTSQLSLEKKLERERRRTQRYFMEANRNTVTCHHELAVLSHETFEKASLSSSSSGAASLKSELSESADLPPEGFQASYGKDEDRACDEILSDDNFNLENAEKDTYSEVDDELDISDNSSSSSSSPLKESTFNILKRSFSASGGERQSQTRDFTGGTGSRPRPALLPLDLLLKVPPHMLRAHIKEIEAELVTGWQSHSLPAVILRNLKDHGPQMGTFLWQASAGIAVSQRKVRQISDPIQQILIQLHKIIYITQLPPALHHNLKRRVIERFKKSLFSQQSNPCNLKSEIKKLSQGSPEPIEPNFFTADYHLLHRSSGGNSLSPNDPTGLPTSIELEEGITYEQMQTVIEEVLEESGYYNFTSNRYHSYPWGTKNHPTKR
Sequence of Mitogen-activated protein kinase kinase kinase 12 (Homo sapiens) (Q12852 whole entry): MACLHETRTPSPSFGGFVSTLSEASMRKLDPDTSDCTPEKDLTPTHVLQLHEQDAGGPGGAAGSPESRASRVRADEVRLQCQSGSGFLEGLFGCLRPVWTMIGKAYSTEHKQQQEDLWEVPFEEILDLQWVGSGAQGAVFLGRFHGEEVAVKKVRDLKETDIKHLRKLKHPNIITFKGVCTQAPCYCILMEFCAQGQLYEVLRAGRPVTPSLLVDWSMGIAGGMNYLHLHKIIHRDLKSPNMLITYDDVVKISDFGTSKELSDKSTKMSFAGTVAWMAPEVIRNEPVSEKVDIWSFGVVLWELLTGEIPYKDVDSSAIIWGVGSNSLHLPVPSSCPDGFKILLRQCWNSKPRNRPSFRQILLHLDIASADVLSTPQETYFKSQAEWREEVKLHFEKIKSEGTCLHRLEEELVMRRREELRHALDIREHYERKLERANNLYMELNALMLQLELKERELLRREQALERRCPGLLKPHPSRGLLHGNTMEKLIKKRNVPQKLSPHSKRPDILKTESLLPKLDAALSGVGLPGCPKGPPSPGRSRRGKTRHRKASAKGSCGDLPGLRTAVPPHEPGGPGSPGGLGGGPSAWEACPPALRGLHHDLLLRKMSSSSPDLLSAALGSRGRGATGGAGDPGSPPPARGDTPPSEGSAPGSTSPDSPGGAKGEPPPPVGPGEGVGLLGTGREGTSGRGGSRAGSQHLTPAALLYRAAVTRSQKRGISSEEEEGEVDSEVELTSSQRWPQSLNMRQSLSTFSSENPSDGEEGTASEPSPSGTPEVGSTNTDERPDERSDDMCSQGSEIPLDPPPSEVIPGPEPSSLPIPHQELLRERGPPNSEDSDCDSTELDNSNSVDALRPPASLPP
Sequence of 5'-AMP-activated protein kinase catalytic subunit alpha-1 (Homo sapiens) (Q13131 whole entry, looked up): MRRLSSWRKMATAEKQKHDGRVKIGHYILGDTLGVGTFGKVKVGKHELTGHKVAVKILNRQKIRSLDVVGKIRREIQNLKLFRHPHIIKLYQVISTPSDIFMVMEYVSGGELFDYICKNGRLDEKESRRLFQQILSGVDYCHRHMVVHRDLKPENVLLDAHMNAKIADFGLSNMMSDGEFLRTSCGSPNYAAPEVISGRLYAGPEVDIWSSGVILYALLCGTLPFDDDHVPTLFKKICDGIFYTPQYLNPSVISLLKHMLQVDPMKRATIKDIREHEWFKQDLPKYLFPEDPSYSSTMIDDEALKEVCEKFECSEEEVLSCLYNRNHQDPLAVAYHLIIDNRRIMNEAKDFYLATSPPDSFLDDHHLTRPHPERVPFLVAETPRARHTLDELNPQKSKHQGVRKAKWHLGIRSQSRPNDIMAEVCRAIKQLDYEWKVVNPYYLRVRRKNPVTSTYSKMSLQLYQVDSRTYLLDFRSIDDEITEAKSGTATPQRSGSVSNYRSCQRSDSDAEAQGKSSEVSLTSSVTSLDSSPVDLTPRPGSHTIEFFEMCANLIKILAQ
Sequence of Receptor-interacting serine/threonine-protein kinase 4 (Homo sapiens) (P57078 whole entry): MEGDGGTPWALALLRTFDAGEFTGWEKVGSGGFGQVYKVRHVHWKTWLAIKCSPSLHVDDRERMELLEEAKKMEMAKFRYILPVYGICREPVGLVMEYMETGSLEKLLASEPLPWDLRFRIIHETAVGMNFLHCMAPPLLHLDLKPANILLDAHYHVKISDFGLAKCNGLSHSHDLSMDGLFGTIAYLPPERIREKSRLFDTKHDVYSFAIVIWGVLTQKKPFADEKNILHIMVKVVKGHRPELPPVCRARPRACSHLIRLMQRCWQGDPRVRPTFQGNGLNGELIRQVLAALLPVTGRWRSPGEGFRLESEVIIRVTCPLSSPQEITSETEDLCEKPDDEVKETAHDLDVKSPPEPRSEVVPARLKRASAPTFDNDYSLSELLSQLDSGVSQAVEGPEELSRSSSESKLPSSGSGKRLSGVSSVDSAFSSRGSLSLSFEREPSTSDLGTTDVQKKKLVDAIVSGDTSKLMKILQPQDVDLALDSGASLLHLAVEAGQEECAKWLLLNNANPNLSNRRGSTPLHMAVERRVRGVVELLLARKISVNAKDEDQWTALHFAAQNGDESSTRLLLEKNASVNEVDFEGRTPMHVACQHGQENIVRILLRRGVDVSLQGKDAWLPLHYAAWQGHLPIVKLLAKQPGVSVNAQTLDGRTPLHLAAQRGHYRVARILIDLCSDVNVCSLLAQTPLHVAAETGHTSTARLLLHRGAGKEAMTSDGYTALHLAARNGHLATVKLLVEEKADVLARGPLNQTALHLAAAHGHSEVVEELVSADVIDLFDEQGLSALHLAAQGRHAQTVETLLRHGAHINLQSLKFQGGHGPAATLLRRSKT
Sequence of Calcium/calmodulin-dependent protein kinase type 1G (Homo sapiens) (Q96NX5 whole entry, the tested form may be a part): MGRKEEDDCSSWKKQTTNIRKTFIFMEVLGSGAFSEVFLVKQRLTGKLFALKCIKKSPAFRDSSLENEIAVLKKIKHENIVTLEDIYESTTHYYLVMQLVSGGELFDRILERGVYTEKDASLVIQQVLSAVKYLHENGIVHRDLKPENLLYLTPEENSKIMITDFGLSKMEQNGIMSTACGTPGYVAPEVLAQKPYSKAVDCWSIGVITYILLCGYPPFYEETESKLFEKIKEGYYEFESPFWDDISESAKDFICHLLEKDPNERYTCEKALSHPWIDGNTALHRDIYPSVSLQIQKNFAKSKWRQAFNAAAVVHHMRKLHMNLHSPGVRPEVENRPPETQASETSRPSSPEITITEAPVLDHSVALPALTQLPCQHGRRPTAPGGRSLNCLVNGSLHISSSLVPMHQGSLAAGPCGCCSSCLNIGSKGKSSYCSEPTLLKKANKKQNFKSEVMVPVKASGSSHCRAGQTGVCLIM
Sequence of Dual specificity mitogen-activated protein kinase kinase 3 (Homo sapiens) (P46734 whole entry): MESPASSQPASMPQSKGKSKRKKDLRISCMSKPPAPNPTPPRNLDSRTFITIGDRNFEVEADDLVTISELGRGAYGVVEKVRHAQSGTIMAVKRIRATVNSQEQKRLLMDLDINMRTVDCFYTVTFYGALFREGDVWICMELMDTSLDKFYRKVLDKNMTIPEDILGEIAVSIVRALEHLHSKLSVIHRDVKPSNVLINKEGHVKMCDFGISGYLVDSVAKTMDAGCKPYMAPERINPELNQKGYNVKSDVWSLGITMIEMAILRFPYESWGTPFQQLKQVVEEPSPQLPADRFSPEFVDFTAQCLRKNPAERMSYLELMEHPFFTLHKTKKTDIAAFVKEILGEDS

Take `CC(C)(C)OC(=O)N1CCCC1CNC1CCC(c2cc(F)ccc2F)(S(=O)(=O)c2ccc(Cl)cc2)CC1` (stereo not given) [GSI-NC]: the pKi (usually the Ki on a negative log10 scale, so that one unit is a factor of ten) in experiment [1] is 7.68.

In the case of `O=S(=O)(NC1CCC(c2cc(F)ccc2F)(S(=O)(=O)c2ccc(Cl)cc2)CC1)C(F)(F)F` (stereo not given) [MRK-560], the residual activity in experiment [2] was 100%; in [3] it was 100%; in experiment [4] it was 100%; in experiment [5] it was 86%; in [6], 100%; in [7] it was 100%. For the same compound, the residual activity is 100% in [8]; 100% in experiment [9]; 100% in experiment [10]; 100% in [11]; 100% in experiment [12]; 90% in experiment [13]. For the same compound, the residual activity in experiment [14] is 100%; in experiment [15] it was 100%; in experiment [16], 100%; in experiment [17] it was 93%; in experiment [18], 97%; in experiment [19] it was 70%. Moreover, the residual activity in experiment [20] was 83%; in experiment [21], 96%; in [22], 91%; in [23] it was 100%; in experiment [24] it was 83%; in experiment [25], 85%. In addition, the residual activity in experiment [26] is 100%; in experiment [27], 100%; in experiment [28], 100%; in experiment [29], 100%; in [30] it was 100%; in experiment [31], 60%. The residual activity in experiment [32] is 100%; in experiment [33], 100%; in experiment [34], 100%; in experiment [35], 100%; in experiment [36], 82%; in experiment [37], 91%. In addition, the residual activity in experiment [38] is 84%; in [39], 83%; in [40], 100%; in experiment [41], 82%; in experiment [42] it was 98%; in [43] it was 86%. For the same compound, the residual activity is 77% in experiment [44] and 84% in [45].
